Data reported in patent US10047105B2, “Gyrase inhibitors” (Merck Sharp & Dohme Corp., priority 2009, dated 2018).
In brackets after ≈: the same amount, converted by molar mass.

Columns and labels:
Assay type in all cases: cell-based
[1] = test system: S. aureus ATCC 13709 (SA + serum); test: MIC, S. aureus + 20% mouse serum; conditions: Staphylococcus aureus, ATCC13709; S. aureus + serum (20% mouse serum); read-out: Antibacterial Potency MIC
[2] = test system: E. coli ATCC 25922 (EC8 + serum); test: MIC, E. coli + 20% mouse serum; conditions: Escherichia coli, ATCC25922; E. coli + serum (20% mouse serum); read-out: Antibacterial Potency MIC
K. pneumoniae 101 = test: MIC, K. pneumoniae 101; conditions: Klebsiella pneumoniae, read-out: Antibacterial Potency MIC
A. baumannii ATCC 19606 = test: MIC, A. baumannii; conditions: Acinetobacter baumannii, ATCC19606, read-out: Antibacterial Potency MIC
K. pneumoniae 11 = test: MIC, K. pneumoniae 11; conditions: Klebsiella pneumoniae, read-out: Antibacterial Potency MIC
P. aeruginosa ATCC 15692 = test: MIC, P. aeruginosa (wt); conditions: Pseudomonas aeruginosa, ATCC15692, read-out: Antibacterial Potency MIC
S. aureus ATCC 13709 = test: MIC, antibacterial potency, S. aureus; conditions: for MIC: Staphylococcus aureus, ATCC13709, S. aureus; for MIC, SA: S. aureus (SA), in µg/mL
[3] = test system: E. coli Δtolc BW25113 Δtolc; test: microbe, parasite or virus in culture; conditions: Escherichia coli, BW25113, read-out: Antibacterial Potency MIC
S. pneumoniae ATCC 51916 = test: MIC, S. pneumoniae; conditions: for MIC: Streptococcus pneumoniae, ATCC51916, S. pneumoniae, read-out: Antibacterial Potency MIC; for MIC Spn52: S. pneumoniae (Spn52), in µg/mL
H. influenzae ATCC 49247 = test: MIC, H. influenzae; conditions: Haemophilus influenzae, ATCC49247, read-out: Antibacterial Potency MIC
[4] = test system: E. coli imp Benson BAS849; test: microbe, parasite or virus in culture; conditions: Escherichia coli, read-out: Antibacterial Potency MIC
E. coli 8 ATCC 25922 = test: MIC, E. coli 8 (wt); conditions: for MIC: Escherichia coli, ATCC25922, E. coli (wt), read-out: Antibacterial Potency MIC; for MIC EC8: E. coli 8 (EC8)

| MIC, SA (S. aureus ATCC 13709) | MIC Spn52 (S. pneumoniae ATCC 51916) | MIC EC8 (E. coli 8 ATCC 25922) [µg/mL] | Structure (SMILES) | further results |
| --- | --- | --- | --- | --- |
| – | – | – | CCc1[nH]c2nc(Sc3cnc4ccc[n+]([O-])c4c3)nc(N3CC4C(N)C4C3)c2c1Cl (stereo not drawn) [compound 701009] | MIC [1]: ≤ 0.5 µg/mL; MIC [2]: 4 µg/mL; MIC (K. pneumoniae 101): ≤ 0.5 µg/mL; MIC (A. baumannii ATCC 19606): 4 µg/mL (≈ 8.81 µM); MIC (K. pneumoniae 11): 32 µg/mL (≈ 70.5 µM); MIC (P. aeruginosa ATCC 15692): 4 µg/mL (≈ 8.81 µM); MIC (S. aureus ATCC 13709): ≤ 0.5 µg/mL; MIC [3]: ≤ 0.5 µg/mL; MIC (S. pneumoniae ATCC 51916): ≤ 0.5 µg/mL; MIC (H. influenzae ATCC 49247): 2 µg/mL (≈ 4.41 µM); MIC [4]: ≤ 0.5 µg/mL; MIC (E. coli 8 ATCC 25922): 2 µg/mL (≈ 4.41 µM) |
| 8 | 4 | 4 (≈ 9.13 µM) | N[C@@H]1CCN(c2nc(Sc3cnc4cccnc4c3)nc3[nH]c(C4CC4)c(Cl)c23)C1 [701,064] | – |
| 4 | 2 | 8 (≈ 17.7 µM) | NC1C2CN(c3nc(Sc4cnc5nccnc5c4)nc4[nH]c(C5CC5)c(Cl)c34)CC12 (stereo not drawn) [700,976] | – |
| >64 | 64 | > 64 | CCc1[nH]c2nc(Oc3ccc4nccnc4c3)nc(OC3CCNCC3)c2c1Cl [701,290] | – |
| 4 | >64 | > 64 | CCc1[nH]c2nc(Sc3ccc4[nH]c(N)nc(=O)c4c3)nc(N3CC[C@@H](N)C3)c2c1Cl [701,066] | – |
| 4 | 8 | 64 (≈ 157 µM) | CCc1[nH]c2nc(Oc3ccc4cccnc4c3)nc(N3CC[C@@H](N)C3)c2c1Cl [701,070] | – |
| 64 | >64 | 32 (≈ 61.1 µM) | CCc1[nH]c2nc(Sc3ccc4nc(C)nc(N5CC(CN)C5)c4c3)nc(N3CC[C@@H](N)C3)c2c1Cl [700,914] | – |
| 8 | 16 | > 32 | CCc1[nH]c2nc(Oc3cncc(OC)c3)nc(N3CC4C(N)C4C3)c2c1Cl (stereo not drawn) [701,041] | – |
| <=0.5 | 1 | > 16 | CCc1[nH]c2nc(Sc3ccc4cc(C#N)c[n+]([O-])c4c3)nc(N3CC4C(N)C4C3)c2c1Cl (stereo not drawn) [701,010] | – |
| <=0.5 | 2 | > 64 | CCc1[nH]c2nc(Sc3cc(C(=O)NOC)c4ncccc4c3)nc(N3CC[C@@H](N)C3)c2c1Cl [701,015] | – |
| 1 | 2 | 16 (≈ 31.5 µM) | CCc1[nH]c2nc(Sc3ccc4nc(N5CC(N)C5)cnc4c3)nc(N3C[C@@H]4C(N)[C@@H]4C3)c2c1Cl (stereo partly drawn) [701,013] | – |
| <=0.5 | <=0.5 | 8 (≈ 18.3 µM) | CCc1[nH]c2nc(Sc3ccc4cncnc4c3)nc(N3CC4C(N)C4C3)c2c1Cl (stereo not drawn) [701,069] | – |
| >64 | >64 | > 64 | CCc1[nH]c2nc(Oc3cnc4c(c3)ncn4C)nc(N3CC[C@@H](N)C3)c2c1Cl [701,033] | – |
| <=0.5 | 1 | > 64 | CCc1[nH]c2nc(Oc3cnc(OC)c(OC)c3)nc(Oc3cnc(OC)c(OC)c3)c2c1Br [701,097] | – |
| <=0.5 | 1 | > 64 | CCc1[nH]c2nc(Oc3ccc4cccnc4c3)nc(Oc3ccc4cccnc4c3)c2c1Br [701,054] | – |
| <=0.5 | <=0.5 | > 64 | CCc1[nH]c2nc(Oc3ccc4nccnc4c3)nc(Oc3cncc(C#N)c3)c2c1Br [700,987] | – |
| <=0.5 | <=0.5 | > 64 | CCc1[nH]c2nc(Sc3ccc4nc(N)n[n+]([O-])c4c3)nc(N3CC[C@@H](N)C3)c2c1Cl [701,087] | – |
| 16 | >64 | > 64 | CCc1[nH]c2nc(Oc3ccc4nccnc4c3)nc(OC3CCN(C(=O)OC(C)(C)C)CC3)c2c1Cl [701,289] | – |
| 16 | 4 | 8 (≈ 18.2 µM) | N[C@@H]1CCN(c2nc(Sc3cnc4nccnc4c3)nc3[nH]c(C4CC4)c(Cl)c23)C1 [700,977] | – |

| MIC, SA (S. aureus ATCC 13709) | MIC Spn52 (S. pneumoniae ATCC 51916) | MIC EC8 (E. coli 8 ATCC 25922) [µg/mL] | Structure (SMILES) | further results |
| --- | --- | --- | --- | --- |
| <=0.5 | 2 | 8 (≈ 20.7 µM) | CCc1[nH]c2nc(Oc3cnc(C)nc3)nc(N3CC4C(N)C4C3)c2c1Cl (stereo not drawn) [701,151] | – |
| – | – | – | CCc1[nH]c2nc(Sc3cnc4ccc[n+]([O-])c4c3)nc(N3CC[C@@H](N)C3)c2c1Cl [701,008] | MIC [1]: ≤ 0.5 µg/mL; MIC [2]: 2 µg/mL; MIC (K. pneumoniae 101): ≤ 0.5 µg/mL; MIC (A. baumannii ATCC 19606): 8 µg/mL (≈ 18.1 µM); MIC (K. pneumoniae 11): 32 µg/mL (≈ 72.4 µM); MIC (P. aeruginosa ATCC 15692): 16 µg/mL (≈ 36.2 µM); MIC (S. aureus ATCC 13709): ≤ 0.5 µg/mL; MIC [3]: ≤ 0.5 µg/mL; MIC (S. pneumoniae ATCC 51916): 1 µg/mL (≈ 2.26 µM); MIC (H. influenzae ATCC 49247): 2 µg/mL (≈ 4.53 µM); MIC [4]: 1 µg/mL (≈ 2.26 µM); MIC (E. coli 8 ATCC 25922): 4 µg/mL (≈ 9.05 µM) |
| 2 | 4 | > 64 | CCc1[nH]c2nc(Sc3cnc4c(=N)n(CC5OCCO5)c(C)nc4c3)nc(N3CC[C@@H](N)C3)c2c1Cl [700,906] | – |
| 32 | 32 | 64 (≈ 110 µM) | CCc1[nH]c2nc(Sc3cnc4c(=N)n(CCCN5CCC(N)C5)c(C)nc4c3)nc(N3CC[C@@H](N)C3)c2c1Cl (stereo partly drawn) [700,943] | – |
| <=0.5 | <=0.5 | > 64 | CCc1[nH]c2nc(Oc3cnc(C)nc3)nc(Oc3cnc(C)nc3)c2c1Br [701,254] | – |
| 8 | 32 | > 64 | CCc1[nH]c2nc(Oc3ccc4c(c3)ncc[n+]4[O-])nc(Oc3ccc4c(c3)ncc[n+]4[O-])c2c1Cl [701,057] | – |
| <=0.5 | <=0.5 | > 64 | CCc1[nH]c2nc(Sc3cnc4cccnc4c3)nc(N3CCC(CNC(=O)c4nccs4)C3)c2c1Cl (stereo not drawn) [701,047] | – |
| >16 | >16 | > 16 | CCc1[nH]c2nc(Oc3cccc(C#N)c3)nc(C(C)N3CC4C(N)C4C3)c2c1Cl (stereo not drawn) [700,951] | – |
| <=0.5 | 2 | > 64 | CCc1[nH]c2nc(Sc3ccc4cc5c([n+]([O-])c4c3)CCNC5)nc(N3CC4C(C3)C4(N)C(N)=O)c2c1Cl (stereo not drawn) [700,971] | – |
| 8 | 4 | 8 (≈ 18.2 µM) | NC1CN(c2nc(Sc3cnc4ccc[n+]([O-])c4c3)nc3[nH]c(C4CC4)c(Cl)c23)C1 [701,074] | – |
| 8 | 32 | 64 (≈ 182 µM) | CCc1[nH]c2nc(Oc3cncnc3)nc(N3CC4C(N)C4C3)c2c1C (stereo not drawn) [701,193] | – |
| 8 | 32 | > 64 | CCc1[nH]c2nc(Oc3cncnc3)nc(Oc3ccc4ncnc(N5CC(N)C5)c4c3)c2c1Cl [701,296] | – |
| <=0.5 | <=0.5 | 4 (≈ 8.38 µM) | CCc1[nH]c2nc(Oc3cncc(C#N)c3)nc(Oc3cc(O)cc(C#N)c3)c2c1Br [701,268] | – |
| <=0.5 | 4 | > 64 | CCc1[nH]c2nc(Sc3cncnc3)nc(N3CC4C(C3)C4(N)C(N)=O)c2c1Cl (stereo not drawn) [700,967] | – |
| <=0.5 | <=0.5 | 16 (≈ 35.4 µM) | CCc1[nH]c2nc(Sc3cnc4cccnc4c3)nc(N3CCC4CNC4C3)c2c1Cl (stereo not drawn) [701,115] | – |
| <=0.5 | <=0.5 | > 64 | CCc1[nH]c2nc(Oc3cncnc3)nc(Oc3cc(N)cc(C#N)c3)c2c1Br [701,250] | – |
| 8 | 8 | > 64 | NC(=O)C1(N)C2CN(c3nc(Sc4cnc5nccnc5c4)nc4[nH]c(C5CC5)c(Cl)c34)CC21 (stereo not drawn) [700,975] | – |
| 32 | 64 | > 64 | CCc1[nH]c2nc(Sc3cnc4nccnc4c3)nc(N(CCN)CC(C)c3ccccc3)c2c1Cl (stereo not drawn) [701,147] | – |

| Structure (SMILES) | MIC, SA (S. aureus ATCC 13709) | MIC Spn52 (S. pneumoniae ATCC 51916) | MIC EC8 (E. coli 8 ATCC 25922) [µg/mL] | further results |
| --- | --- | --- | --- | --- |
| CCc1[nH]c2nc(Sc3cnc4ccc[n+]([O-])c4c3)nc(N3CC4C(N)C4C3)c2c1Cl (stereo not drawn) [701009-2] | <=0.5 | <=0.5 | 2 (≈ 4.41 µM) | – |
